From PubChem BioAssay AID2060490 (Molecular Pharmacology Branch, DTP, NCI, 2025)

System: 885512-296-R-J2-PDC complex spheroid viability
Assay: Anticancer human tumor 885512-296-R-J2-PDC patient-derived breast carcinoma cell line growth inhibition [GQUAD]
Conditions: for IC50: curve of first compound; for viability, T/C: stronger effect = lower value
Method in brief: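 Viability of tumor cells grown as complex spheroids with endothelial and stromal cells, exposed to drug combinations. Top concentration at or near clinical Cmax (else 10 microM), diluted in half-log increments.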

[1] = second compound 0.0316 µM, first compound 0.0316 µM
[2] = second compound 0.0316 µM, first compound 0.1 µM
[3] = second compound 0.0316 µM, first compound 0.316 µM
[4] = second compound 0.0316 µM, first compound 1 µM
[5] = second compound 0.0316 µM, first compound 3.16 µM
[6] = second compound 0.0316 µM, first compound 10 µM
[7] = second compound 0.1 µM, first compound 0.0316 µM
[8] = second compound 0.1 µM, first compound 0.1 µM
[9] = second compound 0.1 µM, first compound 0.316 µM
[10] = second compound 0.1 µM, first compound 1 µM
[11] = second compound 0.1 µM, first compound 3.16 µM
[12] = second compound 0.1 µM, first compound 10 µM
[13] = second compound 0.316 µM, first compound 0.0316 µM
[14] = second compound 0.316 µM, first compound 0.1 µM
[15] = second compound 0.316 µM, first compound 0.316 µM
[16] = second compound 0.316 µM, first compound 1 µM
[17] = second compound 0.316 µM, first compound 3.16 µM
[18] = second compound 0.316 µM, first compound 10 µM
[19] = second compound 1 µM, first compound 0.0316 µM
[20] = second compound 1 µM, first compound 0.1 µM
[21] = second compound 1 µM, first compound 0.316 µM
[22] = second compound 1 µM, first compound 1 µM
[23] = second compound 1 µM, first compound 3.16 µM
[24] = second compound 1 µM, first compound 10 µM
[25] = second compound 3.16 µM, first compound 0.0316 µM
[26] = second compound 3.16 µM, first compound 0.1 µM
[27] = second compound 3.16 µM, first compound 0.316 µM
[28] = second compound 3.16 µM, first compound 1 µM
[29] = second compound 3.16 µM, first compound 3.16 µM
[30] = second compound 3.16 µM, first compound 10 µM
[31] = second compound 10 µM, first compound 0.0316 µM
[32] = second compound 10 µM, first compound 0.1 µM
[33] = second compound 10 µM, first compound 0.316 µM
[34] = second compound 10 µM, first compound 1 µM
[35] = second compound 10 µM, first compound 3.16 µM
[36] = second compound 10 µM, first compound 10 µM
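Note: spheroids exposed to the compounds for one week.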
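Throughout, for viability, T/C: percent of tumor spheroid viability relative to DMSO vehicle control wells.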

For `CC(C)n1c(=O)n(C)c2cnc3cc(F)c(-c4ccc(OCCCN5CCCCC5)nc4)cc3c21` + Cc1cnc(CNC(=O)c2c(=O)c3ccc(N4CCCN(C)CC4)nc3n3c2sc2ccccc23)cn1, the IC50 (second compound 0.0316 µM) was < 31.6 nM, the IC50 (second compound 0.1 µM) was < 31.6 nM and the IC50 (second compound 0.316 µM) was < 31.6 nM. The IC50 (second compound 1 µM) was < 31.6 nM, the IC50 (second compound 3.16 µM) was < 31.6 nM and the IC50 (second compound 10 µM) was < 31.6 nM. For the same compound, the viability, T/C [1] was 28.4%, the viability, T/C [2] was 20.2% and the viability, T/C [3] was 26.6%. For the same compound, the viability, T/C [4] was 39.4%, the viability, T/C [5] was 46.5% and the viability, T/C [6] was 49.1%. It also gave a viability, T/C [7] of 15%, a viability, T/C [8] of 16.6% and a viability, T/C [9] of 24%. The viability, T/C [10] was 18.1%, the viability, T/C [11] was 31.6% and the viability, T/C [12] was 30.8%. For the same compound, the viability, T/C [13] was 13.3%, the viability, T/C [14] was 13.1% and the viability, T/C [15] was 12.6%. For the same compound, the viability, T/C [16] was 16.9%, the viability, T/C [17] was 14.6% and the viability, T/C [18] was 19.5%. It also gave a viability, T/C [19] of 18.1%, a viability, T/C [20] of 16.6% and a viability, T/C [21] of 16.4%. For the same compound, the viability, T/C [22] was 18%, the viability, T/C [23] was 23.2% and the viability, T/C [24] was 12.4%. The viability, T/C [25] was 21.9%, the viability, T/C [26] was 23.4% and the viability, T/C [27] was 21.7%. For the same compound, the viability, T/C [28] was 21.8%, the viability, T/C [29] was 24.8% and the viability, T/C [30] was 9.39%. For the same compound, the viability, T/C [31] was 0.15%, the viability, T/C [32] was 0.19% and the viability, T/C [33] was 0.2%. For the same compound, the viability, T/C [34] was 0.17%, the viability, T/C [35] was 0.16% and the viability, T/C [36] was 0.16%.

In the case of `C=CC(=O)N1CCN(c2nc(=O)n(-c3c(C)ccnc3C(C)C)c3nc(-c4c(O)cccc4F)c(F)cc23)C(C)C1` (stereo not drawn) + Cc1[nH]c2ccc(F)cc2c1-c1nc2c3cccnc3c3ncccc3c2[nH]1, the IC50 (second compound 0.0316 µM) is reported as > 10000 nM, the IC50 (second compound 0.1 µM) is reported as > 10000 nM and the IC50 (second compound 0.316 µM) is reported as > 10000 nM. The IC50 (second compound 1 µM) was > 10000 nM, the IC50 (second compound 3.16 µM) was < 31.6 nM and the IC50 (second compound 10 µM) was < 31.6 nM. It also gave a viability, T/C [1] of 122%, a viability, T/C [2] of 91% and a viability, T/C [3] of 84.7%. For the same compound, the viability, T/C [4] was 106%, the viability, T/C [5] was 111% and the viability, T/C [6] was 96.3%. It also gave a viability, T/C [7] of 118%, a viability, T/C [8] of 96.2% and a viability, T/C [9] of 97.4%. The viability, T/C [10] was 102%, the viability, T/C [11] was 103% and the viability, T/C [12] was 93.4%. It also gave a viability, T/C [13] of 92.9%, a viability, T/C [14] of 103% and a viability, T/C [15] of 102%. The viability, T/C [16] was 102%, the viability, T/C [17] was 91.9% and the viability, T/C [18] was 88.8%. The viability, T/C [19] was 78.9%, the viability, T/C [20] was 79.1% and the viability, T/C [21] was 95.7%. For the same compound, the viability, T/C [22] was 90%, the viability, T/C [23] was 77.3% and the viability, T/C [24] was 72.1%. The viability, T/C [25] was 30.6%, the viability, T/C [26] was 22.9% and the viability, T/C [27] was 21.2%. For the same compound, the viability, T/C [28] was 31.2%, the viability, T/C [29] was 32.9% and the viability, T/C [30] was 27.2%. It also gave a viability, T/C [31] of 1.88%, a viability, T/C [32] of 1.76% and a viability, T/C [33] of 2.07%. It also gave a viability, T/C [34] of 3.47%, a viability, T/C [35] of 6.47% and a viability, T/C [36] of 3.97%.

With `Cn1ncnc1[C@H]1c2n[nH]c(=O)c3cc(F)cc(c23)N[C@@H]1c1ccc(F)cc1` + Cc1cnc(CNC(=O)c2c(=O)c3ccc(N4CCCN(C)CC4)nc3n3c2sc2ccccc23)cn1 the IC50 (second compound 0.0316 µM) was 43.5 nM, the IC50 (second compound 0.1 µM) was 3.57 nM and the IC50 (second compound 0.316 µM) was < 0.999 nM. For the same compound, the IC50 (second compound 1 µM) was < 0.999 nM, the IC50 (second compound 3.16 µM) was < 0.999 nM and the IC50 (second compound 10 µM) was < 0.999 nM. The viability, T/C (second compound 0.0316 µM, first compound 0.000999 µM) was 89.2%, the viability, T/C (second compound 0.0316 µM, first compound 0.00316 µM) was 83.8% and the viability, T/C (second compound 0.0316 µM, first compound 0.00999 µM) was 73.5%. For the same compound, the viability, T/C [1] was 57%, the viability, T/C (second compound 0.0316 µM, first compound 0.0999 µM) was 34.4% and the viability, T/C [3] was 25.5%. The viability, T/C (second compound 0.1 µM, first compound 0.000999 µM) was 51.7%, the viability, T/C (second compound 0.1 µM, first compound 0.00316 µM) was 57.4% and the viability, T/C (second compound 0.1 µM, first compound 0.00999 µM) was 37.1%. For the same compound, the viability, T/C [7] was 34%, the viability, T/C (second compound 0.1 µM, first compound 0.0999 µM) was 27.3% and the viability, T/C [9] was 21.1%. It also gave a viability, T/C (second compound 0.316 µM, first compound 0.000999 µM) of 31.3%, a viability, T/C (second compound 0.316 µM, first compound 0.00316 µM) of 24% and a viability, T/C (second compound 0.316 µM, first compound 0.00999 µM) of 24.2%. The viability, T/C [13] was 20.5%, the viability, T/C (second compound 0.316 µM, first compound 0.0999 µM) was 24% and the viability, T/C [15] was 20.1%. For the same compound, the viability, T/C (second compound 1 µM, first compound 0.000999 µM) was 27.4%, the viability, T/C (second compound 1 µM, first compound 0.00316 µM) was 22.9% and the viability, T/C (second compound 1 µM, first compound 0.00999 µM) was 24.3%. It also gave a viability, T/C [19] of 19.2%, a viability, T/C (second compound 1 µM, first compound 0.0999 µM) of 20% and a viability, T/C [21] of 21.6%. For the same compound, the viability, T/C (second compound 3.16 µM, first compound 0.000999 µM) was 30.3%, the viability, T/C (second compound 3.16 µM, first compound 0.00316 µM) was 26.9% and the viability, T/C (second compound 3.16 µM, first compound 0.00999 µM) was 23.2%. It also gave a viability, T/C [25] of 26.2%, a viability, T/C (second compound 3.16 µM, first compound 0.0999 µM) of 21.3% and a viability, T/C [27] of 22.2%. For the same compound, the viability, T/C (second compound 10 µM, first compound 0.000999 µM) was 0.17%, the viability, T/C (second compound 10 µM, first compound 0.00316 µM) was 0.23% and the viability, T/C (second compound 10 µM, first compound 0.00999 µM) was 0.25%. For the same compound, the viability, T/C [31] was 0.19%, the viability, T/C (second compound 10 µM, first compound 0.0999 µM) was 0.2% and the viability, T/C [33] was 0.23%.

For `CC1COCCN1c1cc(C2(S(C)(=N)=O)CC2)nc(-c2ccnc3[nH]ccc23)n1` (stereo not drawn) + CN(C)c1ccc(Nc2c3ccc(NC(=O)CCN4CCCC4)cc3nc3cc(NC(=O)CCN4CCCC4)ccc23)cc1, the IC50 (second compound 0.0316 µM) was 800 nM, the IC50 (second compound 0.1 µM) was 795 nM and the IC50 (second compound 0.316 µM) was 765 nM. For the same compound, the IC50 (second compound 1 µM) was 729 nM, the IC50 (second compound 3.16 µM) was 744 nM and the IC50 (second compound 10 µM) was < 31.6 nM. The viability, T/C [1] was 102%, the viability, T/C [2] was 90.4% and the viability, T/C [3] was 93%. The viability, T/C [4] was 39.7%, the viability, T/C [5] was 5.75% and the viability, T/C [6] was 3.04%. For the same compound, the viability, T/C [7] was 104%, the viability, T/C [8] was 92.5% and the viability, T/C [9] was 90.7%. The viability, T/C [10] was 39.9%, the viability, T/C [11] was 6.39% and the viability, T/C [12] was 2.92%. The viability, T/C [13] was 110%, the viability, T/C [14] was 102% and the viability, T/C [15] was 87.1%. It also gave a viability, T/C [16] of 39.5%, a viability, T/C [17] of 6.6% and a viability, T/C [18] of 4.64%. For the same compound, the viability, T/C [19] was 97.3%, the viability, T/C [20] was 90.8% and the viability, T/C [21] was 85.1%. The viability, T/C [22] was 36.9%, the viability, T/C [23] was 6.12% and the viability, T/C [24] was 3.44%. It also gave a viability, T/C [25] of 96.7%, a viability, T/C [26] of 98.4% and a viability, T/C [27] of 100%. It also gave a viability, T/C [28] of 33.3%, a viability, T/C [29] of 6.38% and a viability, T/C [30] of 3.89%. The viability, T/C [31] was 15.1%, the viability, T/C [32] was 20.8% and the viability, T/C [33] was 21.7%. The viability, T/C [34] was 11.7%, the viability, T/C [35] was 7.12% and the viability, T/C [36] was 4.27%.
